pIC50: −log10 of the molar value. Values joined by “and” are separate entries in the source; they are usually repeats but may differ in a detail not shown here. Equal values may be shown once.

For the first experiment, the target named is EGFR (UniProt P00533).
EGFR, sequence (P00533 whole entry, looked up): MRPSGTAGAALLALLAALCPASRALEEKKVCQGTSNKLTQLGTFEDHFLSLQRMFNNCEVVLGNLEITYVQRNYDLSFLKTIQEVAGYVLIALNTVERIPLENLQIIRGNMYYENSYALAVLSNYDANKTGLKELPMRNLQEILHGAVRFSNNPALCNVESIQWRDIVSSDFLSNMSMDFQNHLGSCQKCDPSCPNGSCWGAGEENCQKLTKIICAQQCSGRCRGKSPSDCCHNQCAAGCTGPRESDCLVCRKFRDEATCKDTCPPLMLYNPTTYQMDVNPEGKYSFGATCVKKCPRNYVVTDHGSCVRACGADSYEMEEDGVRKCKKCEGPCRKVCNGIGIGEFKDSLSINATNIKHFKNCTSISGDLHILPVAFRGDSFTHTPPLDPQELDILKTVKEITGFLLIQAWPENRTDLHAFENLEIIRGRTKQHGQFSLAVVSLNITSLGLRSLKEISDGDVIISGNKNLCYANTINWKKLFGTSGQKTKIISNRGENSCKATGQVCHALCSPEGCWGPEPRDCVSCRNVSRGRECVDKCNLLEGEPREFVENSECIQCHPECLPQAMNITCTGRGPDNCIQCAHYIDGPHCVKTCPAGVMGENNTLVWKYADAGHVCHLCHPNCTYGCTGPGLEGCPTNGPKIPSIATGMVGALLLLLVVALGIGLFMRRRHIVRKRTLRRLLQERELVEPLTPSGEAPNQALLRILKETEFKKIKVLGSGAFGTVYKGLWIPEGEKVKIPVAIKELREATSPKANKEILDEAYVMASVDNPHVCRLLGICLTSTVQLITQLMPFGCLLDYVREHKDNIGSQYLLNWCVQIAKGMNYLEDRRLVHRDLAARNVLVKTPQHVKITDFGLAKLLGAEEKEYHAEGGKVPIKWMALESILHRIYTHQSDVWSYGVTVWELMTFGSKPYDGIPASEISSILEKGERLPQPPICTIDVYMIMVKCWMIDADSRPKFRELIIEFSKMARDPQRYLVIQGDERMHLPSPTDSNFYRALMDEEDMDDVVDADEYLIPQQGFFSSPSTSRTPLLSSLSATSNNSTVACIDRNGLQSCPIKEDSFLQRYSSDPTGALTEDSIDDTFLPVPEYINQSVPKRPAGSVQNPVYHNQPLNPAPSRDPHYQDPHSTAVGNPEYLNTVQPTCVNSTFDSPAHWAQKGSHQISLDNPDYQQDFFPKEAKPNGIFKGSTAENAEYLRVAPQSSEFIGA
By pIC50 is commonly meant −log10 of the IC50, conventionally taken in molar units. A higher pIC50 goes with a low IC50. The molecule `COc1ccccc1-c1ccc2c(c1)NC(=O)/C2=C\c1[nH]c2c(c1CCC(=O)O)CCCC2` had a pIC50 below 4.00.

Consider `COc1c(C(C)C)cc(/C=C2\C(=O)Nc3cc(-c4ccccc4)ccc32)cc1C(C)C`, for which the pIC50 was below 4.00. On the same count and under the same terms, with `CCc1cc(CC)c(/C=C2\C(=O)Nc3cc(-c4ccccc4OC)ccc32)[nH]1` the figure was below 4.00; with `COc1ccccc1-c1ccc2c(c1)NC(=O)/C2=C\c1[nH]c(C)cc1C`, below 4.00.

The target of the next experiment is EGFR (UniProt P00533). This is another data set of the same source.
For the molecule `COc1ccccc1-c1ccc2c(c1)NC(=O)/C2=C\c1[nH]c2c(c1CCC(=O)O)CCCC2`, the pIC50 is below 4.00. `COc1c(C(C)C)cc(/C=C2\C(=O)Nc3cc(-c4ccccc4)ccc32)cc1C(C)C` showed a pIC50 below 4.00. The same measure, in the same setting: with `COc1cccc(-c2ccc3c(c2)NC(=O)/C3=C\c2cc3c([nH]2)CCCC3)c1` the figure was below 4.00; with `CCc1cc(CC)c(/C=C2\C(=O)Nc3cc(-c4ccccc4OC)ccc32)[nH]1`, below 4.00; with `COc1ccccc1-c1ccc2c(c1)NC(=O)/C2=C\c1[nH]c(C)cc1C`, below 4.00.

In the next experiment the target is EGFR (UniProt P00533). This is another data set of the same source.
For the molecule `Cc1ccc(Cn2nc(C)cc2C(=O)Nc2cccc(C(F)(F)F)c2)cc1`, the negative-log IC50 (pIC50) is 5.20 and 5.01. Still for that read-out and setting: with `CC(C)(C)c1cc(C(=O)Nc2cccnc2)n(Cc2ccccc2)n1` the figure was below 4.00; with `Cc1ccc(Cn2nc(C)cc2C(=O)Nc2ccc(C(F)(F)F)cc2)cc1`, 5.15 and 5.01; with `CC(C)(C)c1cc(C(=O)Nc2ccccc2C(F)(F)F)n(Cc2ccccc2)n1`, 4.33.

`Cc1cc(C)c(NC(=O)c2cc(C(C)(C)C)nn2Cc2ccccc2)cn1`: the negative-log IC50 (pIC50) is 4.16.

Molecule `Cc1cnc2ccccc2c1NC(=O)c1cc(C(C)(C)C)nn1Cc1ccccc1` had a negative logarithm of the IC50 (pIC50) of 4.67. The same measure, in the same setting: the same measure for `COc1ccc(NC(=O)c2cc(C(C)(C)C)nn2Cc2ccccc2)cc1-c1ccccc1`: below 4.30; for `CC(C)(C)c1cc(C(=O)Nc2ccc3c(c2)OCO3)n(Cc2ccccc2)n1`: 4.30; for `COc1ccc(NC(=O)c2cc(C(C)(C)C)nn2Cc2ccccc2)c(OC)n1`: below 4.00.

The molecule `CC(C)(C)c1cc(C(=O)Nc2ccc(O)c(-c3cccc(-c4ccccc4)c3)c2)n(Cc2ccccc2)n1` showed a negative-log IC50 (pIC50) below 4.30.

Molecule `CC(C)(C)c1cc(C(=O)Nc2ccc(C(F)(F)F)cc2)n(Cc2ccccc2)n1` gave a negative-log IC50 (pIC50) of 4.81. For `CC(C)(C)c1cc(C(=O)Nc2c(F)c(F)nc(F)c2F)n(Cc2ccccc2)n1`, the negative logarithm of the IC50 (pIC50) is 4.59. On the same count and under the same terms, the same measure for `CC(C)(C)c1cc(C(=O)Nc2cccc(C(F)(F)F)c2)n(Cc2ccccc2)n1`: 4.27.

With `CC(C)(C)c1cc(C(=O)Nc2cc3ccccc3cn2)n(Cc2ccccc2)n1`, the pIC50 was below 4.00.

In turn, `CC(C)(C)c1cc(C(=O)Nc2ccc3oc(=O)c4ccccc4c3c2)n(Cc2ccccc2)n1` showed a negative-log IC50 (pIC50) of 4.37. On the same count and under the same terms, with `COc1ccc(-c2ccccc2)cc1NC(=O)c1cc(C(C)(C)C)nn1Cc1ccccc1` the figure was below 4.30. Still for that read-out and setting: with `COc1cccc(-c2cc(NC(=O)c3cc(C(C)(C)C)nn3Cc3ccccc3)ccc2OC)c1` the figure was below 4.30; with `Cc1cccnc1NC(=O)c1cc(C(C)(C)C)nn1Cc1ccccc1`, 4.27; with `CC(C)(C)c1cc(C(=O)c2nccc3ccccc23)n(Cc2ccccc2)n1`, 4.65. Same read-out and setting: with `CC(C)(C)c1cc(C(=O)Nc2cnc3ccccc3c2)n(Cc2ccccc2)n1` the figure was 4.99; with `CC(C)(C)c1cc(C(=O)Nc2ccc(C(F)(F)F)cn2)n(Cc2ccccc2)n1`, 4.33; with `CC(=O)Nc1ccc2c(c1)C(=O)c1cc(NC(=O)c3cc(C(C)(C)C)nn3Cc3ccccc3)ccc1-2`, 5.36. For `CC(C)(C)c1cc(C(=O)Nc2cccc3c2C(=O)c2ccccc2-3)n(Cc2ccccc2)n1`, the pIC50 was below 4.30. For the molecule `CC(C)(C)c1cc(C(=O)Nc2ccccn2)n(Cc2ccccc2)n1`, the negative logarithm of the IC50 (pIC50) was below 4.00. Regarding `Cc1ccnc(NC(=O)c2cc(C(C)(C)C)nn2Cc2ccccc2)c1`, the pIC50 is 4.30.

Molecule `CC(C)(C)c1cc(C(=O)Nc2cccc(-c3ccccc3)c2)n(Cc2ccccc2)n1` had a pIC50 below 4.30.

On to `COc1cccc(-c2ccc3c(c2)NC(=O)/C3=C\c2cc3c([nH]2)CCCC3)c1`, for which the pIC50 was 4.50 and < 4.30. Same read-out and setting: the same measure for `CC(C)(C)c1cc(C(=O)Nc2ccncc2)n(Cc2ccccc2)n1`: 4.55; for `CCn1c2ccccc2c2cc(NC(=O)c3cc(C(C)(C)C)nn3Cc3ccccc3)ccc21`: below 4.30.

The values above are taken from the Kinase Knowledgebase extract (Sharma et al. 2016).
